Reference: ChEMBL document CHEMBL4507259 (2021)

How the values were obtained:
DU-145 = test: DU-145 Proliferation; format: functional, cell-based; settings: Homo sapiens
[1] = target: Vasopressin V1a receptor (Homo sapiens) (UniProt P37288); test: V1a (h) CEREP ligand profiling; settings: filed as agonist, Compound concentration 10.0 uM
[2] = tested on: Tyrosine-protein kinase ABL1 (Homo sapiens), P00519 [F317I]; settings: Compound concentration 1000.0 nM
[3] = target: Atypical kinase COQ8B, mitochondrial (Homo sapiens) (UniProt Q96D53); settings: Compound concentration 1000.0 nM
[4] = target: Ankyrin repeat and protein kinase domain-containing protein 1 (Homo sapiens) (UniProt Q8NFD2); settings: Compound concentration 1000.0 nM
[5] = target: Calcium/calmodulin-dependent protein kinase type 1B (Homo sapiens) (UniProt Q6P2M8); settings: Compound concentration 1000.0 nM
[6] = target: Calcium/calmodulin-dependent protein kinase type 1G (Homo sapiens) (UniProt Q96NX5); settings: Compound concentration 1000.0 nM
[7] = target: Calcium/calmodulin-dependent protein kinase type II subunit gamma (Homo sapiens) (UniProt Q13555); settings: Compound concentration 1000.0 nM
[8] = target: Cyclin-dependent kinase 5 (Homo sapiens) (UniProt Q00535); settings: Compound concentration 1000.0 nM
[9] = target: Macrophage colony-stimulating factor 1 receptor (Homo sapiens) (UniProt P07333); settings: Compound concentration 1000.0 nM
[10] = target: Discoidin domain-containing receptor 2 (Homo sapiens) (UniProt Q16832); settings: Compound concentration 1000.0 nM
[11] = target: Serine/threonine-protein kinase MRCK gamma (Homo sapiens) (UniProt Q6DT37); settings: Compound concentration 1000.0 nM
Serine/threonine-protein kinase MRCK gamma (Homo sapiens), sequence (Q6DT37 whole entry): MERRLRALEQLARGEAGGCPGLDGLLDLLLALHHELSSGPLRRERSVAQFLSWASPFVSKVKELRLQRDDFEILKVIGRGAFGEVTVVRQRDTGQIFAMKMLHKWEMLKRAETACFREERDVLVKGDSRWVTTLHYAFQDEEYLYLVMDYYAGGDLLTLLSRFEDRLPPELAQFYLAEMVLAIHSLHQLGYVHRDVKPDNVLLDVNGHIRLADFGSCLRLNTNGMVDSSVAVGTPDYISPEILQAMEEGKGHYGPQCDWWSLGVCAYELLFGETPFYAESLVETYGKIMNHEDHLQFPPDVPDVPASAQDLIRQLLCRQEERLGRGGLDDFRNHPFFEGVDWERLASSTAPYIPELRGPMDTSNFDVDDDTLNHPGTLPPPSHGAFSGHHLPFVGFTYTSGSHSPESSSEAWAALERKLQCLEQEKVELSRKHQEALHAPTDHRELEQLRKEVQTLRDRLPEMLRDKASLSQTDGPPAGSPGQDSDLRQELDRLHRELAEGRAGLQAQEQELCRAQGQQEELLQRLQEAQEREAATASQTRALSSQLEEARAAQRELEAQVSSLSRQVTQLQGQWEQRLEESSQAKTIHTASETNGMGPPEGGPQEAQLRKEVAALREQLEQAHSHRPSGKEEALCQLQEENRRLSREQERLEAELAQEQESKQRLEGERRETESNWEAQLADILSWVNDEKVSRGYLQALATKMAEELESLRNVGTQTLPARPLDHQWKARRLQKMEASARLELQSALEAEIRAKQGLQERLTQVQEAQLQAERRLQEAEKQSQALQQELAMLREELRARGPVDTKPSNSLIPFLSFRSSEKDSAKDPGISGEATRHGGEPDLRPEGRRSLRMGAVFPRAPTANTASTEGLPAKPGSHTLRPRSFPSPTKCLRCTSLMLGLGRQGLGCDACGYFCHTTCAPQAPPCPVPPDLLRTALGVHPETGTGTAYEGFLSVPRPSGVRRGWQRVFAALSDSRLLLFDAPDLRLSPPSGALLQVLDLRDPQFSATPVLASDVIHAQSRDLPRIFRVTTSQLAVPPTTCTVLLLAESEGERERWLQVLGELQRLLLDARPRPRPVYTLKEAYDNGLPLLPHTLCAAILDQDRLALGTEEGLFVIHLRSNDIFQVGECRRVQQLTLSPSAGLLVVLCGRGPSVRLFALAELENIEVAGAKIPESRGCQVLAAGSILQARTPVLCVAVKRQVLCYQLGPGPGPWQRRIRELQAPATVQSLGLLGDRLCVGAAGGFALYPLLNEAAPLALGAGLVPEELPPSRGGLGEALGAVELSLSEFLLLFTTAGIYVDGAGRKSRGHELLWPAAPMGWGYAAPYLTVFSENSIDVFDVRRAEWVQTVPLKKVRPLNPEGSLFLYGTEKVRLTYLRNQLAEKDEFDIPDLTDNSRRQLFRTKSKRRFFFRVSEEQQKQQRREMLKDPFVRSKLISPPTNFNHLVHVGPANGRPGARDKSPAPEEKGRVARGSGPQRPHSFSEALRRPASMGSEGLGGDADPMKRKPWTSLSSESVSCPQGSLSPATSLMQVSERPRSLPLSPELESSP

[12] = target: Ephrin type-A receptor 6 (Homo sapiens) (UniProt Q9UF33); settings: Compound concentration 1000.0 nM
[13] = target: Ephrin type-B receptor 2 (Homo sapiens) (UniProt P29323); settings: Compound concentration 1000.0 nM
[14] = target: Fibroblast growth factor receptor 2 (Homo sapiens) (UniProt P21802); settings: Compound concentration 1000.0 nM
[15] = target: G protein-coupled receptor kinase 4 (Homo sapiens) (UniProt P32298); settings: Compound concentration 1000.0 nM
[16] = target: Serine/threonine-protein kinase LATS1 (Homo sapiens) (UniProt O95835); settings: Compound concentration 1000.0 nM
Serine/threonine-protein kinase LATS1 (Homo sapiens), sequence (O95835 whole entry): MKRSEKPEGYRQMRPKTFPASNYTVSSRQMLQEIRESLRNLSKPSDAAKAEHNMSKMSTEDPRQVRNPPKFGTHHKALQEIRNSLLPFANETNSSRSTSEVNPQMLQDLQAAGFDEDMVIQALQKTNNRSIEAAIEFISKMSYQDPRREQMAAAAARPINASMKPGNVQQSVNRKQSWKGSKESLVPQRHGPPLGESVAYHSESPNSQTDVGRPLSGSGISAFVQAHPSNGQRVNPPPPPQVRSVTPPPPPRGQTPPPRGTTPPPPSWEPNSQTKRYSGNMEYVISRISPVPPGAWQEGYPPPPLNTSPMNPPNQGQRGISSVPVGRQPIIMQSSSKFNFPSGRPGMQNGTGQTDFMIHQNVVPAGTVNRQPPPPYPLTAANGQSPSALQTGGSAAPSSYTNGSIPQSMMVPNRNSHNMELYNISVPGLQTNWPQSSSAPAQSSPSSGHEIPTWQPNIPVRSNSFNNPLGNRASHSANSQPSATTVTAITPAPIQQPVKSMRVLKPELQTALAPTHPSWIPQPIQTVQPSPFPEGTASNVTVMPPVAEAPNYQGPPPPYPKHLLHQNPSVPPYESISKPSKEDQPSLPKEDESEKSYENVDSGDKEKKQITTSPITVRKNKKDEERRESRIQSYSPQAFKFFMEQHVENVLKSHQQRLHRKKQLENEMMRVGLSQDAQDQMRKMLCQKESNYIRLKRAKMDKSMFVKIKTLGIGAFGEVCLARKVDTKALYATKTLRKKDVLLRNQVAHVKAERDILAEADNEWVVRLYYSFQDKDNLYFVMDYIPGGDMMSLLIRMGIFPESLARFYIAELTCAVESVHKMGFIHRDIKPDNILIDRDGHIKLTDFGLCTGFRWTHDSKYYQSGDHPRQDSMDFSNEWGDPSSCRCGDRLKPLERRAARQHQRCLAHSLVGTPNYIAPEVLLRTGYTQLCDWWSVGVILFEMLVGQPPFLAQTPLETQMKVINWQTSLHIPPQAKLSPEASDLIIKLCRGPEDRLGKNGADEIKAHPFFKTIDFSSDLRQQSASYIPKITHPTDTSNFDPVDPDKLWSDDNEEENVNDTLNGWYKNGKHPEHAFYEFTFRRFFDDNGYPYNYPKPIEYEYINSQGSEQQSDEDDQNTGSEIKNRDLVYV

[17] = target: Serine/threonine-protein kinase 10 (Homo sapiens) (UniProt O94804); settings: Compound concentration 1000.0 nM
Serine/threonine-protein kinase 10 (Homo sapiens), sequence (O94804 whole entry, looked up): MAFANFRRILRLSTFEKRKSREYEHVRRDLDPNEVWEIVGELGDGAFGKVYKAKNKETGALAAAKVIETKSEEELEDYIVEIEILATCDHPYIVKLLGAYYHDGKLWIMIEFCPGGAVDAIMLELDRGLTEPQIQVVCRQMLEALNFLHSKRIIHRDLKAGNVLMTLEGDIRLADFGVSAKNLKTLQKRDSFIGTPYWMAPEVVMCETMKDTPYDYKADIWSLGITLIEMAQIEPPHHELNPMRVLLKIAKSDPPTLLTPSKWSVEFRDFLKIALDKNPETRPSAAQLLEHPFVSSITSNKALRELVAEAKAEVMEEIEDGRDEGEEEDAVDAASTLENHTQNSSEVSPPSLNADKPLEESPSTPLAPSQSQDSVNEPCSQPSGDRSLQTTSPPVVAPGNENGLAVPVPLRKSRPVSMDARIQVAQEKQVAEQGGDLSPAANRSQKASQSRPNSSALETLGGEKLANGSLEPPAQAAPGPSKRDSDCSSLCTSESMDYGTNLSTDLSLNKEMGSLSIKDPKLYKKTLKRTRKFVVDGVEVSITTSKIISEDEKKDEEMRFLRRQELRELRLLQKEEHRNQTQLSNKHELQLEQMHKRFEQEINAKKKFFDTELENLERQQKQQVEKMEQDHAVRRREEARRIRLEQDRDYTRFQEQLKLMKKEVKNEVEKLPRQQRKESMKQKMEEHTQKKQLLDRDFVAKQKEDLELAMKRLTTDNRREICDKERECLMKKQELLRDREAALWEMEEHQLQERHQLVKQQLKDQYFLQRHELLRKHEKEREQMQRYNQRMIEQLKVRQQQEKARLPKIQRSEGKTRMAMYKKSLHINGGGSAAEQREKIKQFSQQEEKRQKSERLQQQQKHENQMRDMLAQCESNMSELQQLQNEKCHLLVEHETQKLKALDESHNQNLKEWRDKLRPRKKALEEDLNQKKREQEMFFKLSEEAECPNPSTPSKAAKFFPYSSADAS

[18] = target: Mitogen-activated protein kinase kinase kinase 3 (Homo sapiens) (UniProt Q99759); settings: Compound concentration 1000.0 nM
[19] = target: Mitogen-activated protein kinase kinase kinase kinase 3 (Homo sapiens) (UniProt Q8IVH8); settings: Compound concentration 1000.0 nM
[20] = target: Serine/threonine-protein kinase 26 (Homo sapiens) (UniProt Q9P289); settings: Compound concentration 1000.0 nM
[21] = target: Serine/threonine-protein kinase 38 (Homo sapiens) (UniProt Q15208); settings: Compound concentration 1000.0 nM
[22] = target: Serine/threonine-protein kinase Nek11 (Homo sapiens) (UniProt Q8NG66); settings: Compound concentration 1000.0 nM
[23] = target: Serine/threonine-protein kinase Nek7 (Homo sapiens) (UniProt Q8TDX7); settings: Compound concentration 1000.0 nM
[24] = target: cAMP-dependent protein kinase catalytic subunit beta (Homo sapiens) (UniProt P22694); settings: Compound concentration 1000.0 nM
[25] = target: Serine/threonine-protein kinase 16 (Homo sapiens) (UniProt O75716); settings: Compound concentration 1000.0 nM
[26] = target: Dual specificity protein kinase TTK (Homo sapiens) (UniProt P33981); settings: Compound concentration 1000.0 nM
Dual specificity protein kinase TTK (Homo sapiens), sequence (P33981 whole entry): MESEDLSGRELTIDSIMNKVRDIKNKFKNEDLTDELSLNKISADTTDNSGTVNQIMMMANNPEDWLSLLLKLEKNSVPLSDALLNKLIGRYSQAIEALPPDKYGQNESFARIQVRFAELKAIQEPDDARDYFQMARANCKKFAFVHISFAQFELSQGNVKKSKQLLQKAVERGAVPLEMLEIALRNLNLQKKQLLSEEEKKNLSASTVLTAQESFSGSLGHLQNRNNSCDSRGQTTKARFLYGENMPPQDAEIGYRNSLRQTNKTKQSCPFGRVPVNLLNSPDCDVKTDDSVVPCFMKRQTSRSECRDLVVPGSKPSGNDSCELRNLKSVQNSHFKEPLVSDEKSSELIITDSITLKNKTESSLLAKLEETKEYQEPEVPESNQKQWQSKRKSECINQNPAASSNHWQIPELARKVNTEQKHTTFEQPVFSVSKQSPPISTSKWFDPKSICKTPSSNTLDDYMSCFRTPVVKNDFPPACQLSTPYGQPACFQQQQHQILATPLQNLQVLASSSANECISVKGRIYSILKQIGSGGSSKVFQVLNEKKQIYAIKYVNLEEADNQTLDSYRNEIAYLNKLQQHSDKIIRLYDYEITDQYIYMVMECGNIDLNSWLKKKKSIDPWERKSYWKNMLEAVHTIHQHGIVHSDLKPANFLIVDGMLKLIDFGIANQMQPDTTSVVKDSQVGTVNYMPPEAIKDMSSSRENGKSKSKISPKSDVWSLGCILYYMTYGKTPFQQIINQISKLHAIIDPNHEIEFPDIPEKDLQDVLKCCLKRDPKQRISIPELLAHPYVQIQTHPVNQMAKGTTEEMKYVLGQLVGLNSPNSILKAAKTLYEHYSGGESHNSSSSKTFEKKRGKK

[27] = target: Serine/threonine-protein kinase ULK3 (Homo sapiens) (UniProt Q6PHR2); settings: Compound concentration 1000.0 nM
[28] = target: D(1B) dopamine receptor (Homo sapiens) (UniProt P21918); settings: Compound concentration 10.0 uM
[29] = target: Sodium-dependent serotonin transporter (Homo sapiens, UniProt P31645); settings: Compound concentration 10.0 uM
[30] = target: T1, Alpha-2B adrenergic receptor (Homo sapiens) (UniProt P18089); settings: Compound concentration 10.0 uM
T1 sequence (whole entry): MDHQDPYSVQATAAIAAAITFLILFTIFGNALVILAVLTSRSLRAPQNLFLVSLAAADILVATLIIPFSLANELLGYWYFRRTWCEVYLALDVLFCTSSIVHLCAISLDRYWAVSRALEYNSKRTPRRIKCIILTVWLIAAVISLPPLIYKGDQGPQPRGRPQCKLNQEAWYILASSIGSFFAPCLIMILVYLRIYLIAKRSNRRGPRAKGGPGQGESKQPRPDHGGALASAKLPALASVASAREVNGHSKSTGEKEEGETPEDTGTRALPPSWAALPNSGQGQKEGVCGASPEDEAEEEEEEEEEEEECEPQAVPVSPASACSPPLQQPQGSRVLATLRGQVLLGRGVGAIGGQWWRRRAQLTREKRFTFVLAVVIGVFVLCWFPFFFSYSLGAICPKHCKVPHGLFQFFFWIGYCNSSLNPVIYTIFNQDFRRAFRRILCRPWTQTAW

[31] = target: T2, Muscarinic acetylcholine receptor M5 (Homo sapiens) (UniProt P08912); settings: Compound concentration 10.0 uM
T2 sequence (whole entry): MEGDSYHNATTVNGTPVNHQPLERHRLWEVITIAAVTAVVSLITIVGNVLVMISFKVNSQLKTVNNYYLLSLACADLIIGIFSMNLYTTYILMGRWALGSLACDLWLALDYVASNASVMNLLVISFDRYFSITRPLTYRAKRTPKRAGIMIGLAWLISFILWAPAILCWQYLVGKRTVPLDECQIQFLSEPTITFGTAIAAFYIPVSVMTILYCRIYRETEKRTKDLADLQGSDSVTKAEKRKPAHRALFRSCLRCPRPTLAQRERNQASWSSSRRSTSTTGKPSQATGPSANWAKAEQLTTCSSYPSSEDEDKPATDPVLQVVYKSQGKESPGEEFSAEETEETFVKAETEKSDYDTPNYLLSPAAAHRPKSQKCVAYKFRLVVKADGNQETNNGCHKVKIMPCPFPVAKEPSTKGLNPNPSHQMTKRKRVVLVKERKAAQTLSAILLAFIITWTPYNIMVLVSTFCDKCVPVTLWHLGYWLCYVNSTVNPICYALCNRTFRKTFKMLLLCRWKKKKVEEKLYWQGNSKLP

Vasopressin V1a receptor (Homo sapiens), sequence (P37288 whole entry, looked up): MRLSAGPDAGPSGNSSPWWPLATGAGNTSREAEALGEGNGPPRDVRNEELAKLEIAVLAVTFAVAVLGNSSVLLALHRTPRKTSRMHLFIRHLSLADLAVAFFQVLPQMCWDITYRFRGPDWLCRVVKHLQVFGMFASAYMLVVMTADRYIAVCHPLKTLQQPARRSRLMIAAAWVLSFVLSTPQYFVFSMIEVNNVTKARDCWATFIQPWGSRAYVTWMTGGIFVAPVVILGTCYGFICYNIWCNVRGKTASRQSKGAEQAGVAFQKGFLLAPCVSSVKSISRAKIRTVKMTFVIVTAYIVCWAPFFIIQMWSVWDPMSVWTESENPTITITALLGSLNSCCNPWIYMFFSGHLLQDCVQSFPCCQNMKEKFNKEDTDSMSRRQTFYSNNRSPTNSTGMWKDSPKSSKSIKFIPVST

Row | Compound | IC50 (DU-145) | inhibition [1] | residual activity [2] | residual activity [3] | residual activity [4] | residual activity [5] | residual activity [6] | residual activity [7] | residual activity [8] | residual activity [9] | residual activity [10] | residual activity [11] | residual activity [12] | residual activity [13] | residual activity [14] | residual activity [15] | residual activity [16] | residual activity [17] | residual activity [18] | residual activity [19] | further results
1 | CNC(=O)Nc1ccc2c(c1)[C@@]1(CC2)OC(=O)N(CC(=O)N(Cc2ccc(F)cc2)[C@@H](C)C(F)(F)F)C1=O [A-486] | > 10 µM (not active) | 23% | 73% | 95% | 61% | 90% | 100% | 98% | 79% | 100% | 100% | 88% | 91% | 87% | 87% | 100% | 59% | 92% | 75% | 89% | residual activity [20]: 100%; residual activity [21]: 79%; residual activity [22]: 84%; residual activity [23]: 100%; residual activity [24]: 100%; residual activity [25]: 99%; residual activity [26]: 100%; residual activity [27]: 55%; inhibition [28]: 20.5%; inhibition [29]: 31%; inhibition [30]: 10.2%; inhibition [31]: -2.77%
2 | CNC(=O)Nc1ccc2c(c1)CC[C@@]21OC(=O)N(CC(=O)N(Cc2ccc(F)cc2)[C@@H](C)C(F)(F)F)C1=O [A-485] | > 10 µM (not active) | 10% | 87% | 100% | 81% | 100% | 100% | 76% | 84% | 90% | 75% | 88% | 79% | 72% | 88% | 98% | 60% | 100% | 86% | 76% | residual activity [20]: 90%; residual activity [21]: 100%; residual activity [22]: 91%; residual activity [23]: 91%; residual activity [24]: 100%; residual activity [25]: 84%; residual activity [26]: 100%; residual activity [27]: 90%; inhibition [28]: 21.1%; inhibition [29]: 95.6%; inhibition [30]: 26.5%; inhibition [31]: 2.39%
